{"source": "patent US20040116514A1", "about": "“Compositions for preventing human cancer and method of preventing human cancer” (priority 2002, published 2004)", "origin": "cited, not measured here", "tested_on": "humans", "conditions": "β-carotene alone administered in large quantities to humans (Omenn et al., 1996)"}
{"smiles": "CC1=C(/C=C/C(C)=C/C=C/C(C)=C/C=C/C=C(C)/C=C/C=C(C)/C=C/C2=C(C)CCCC2(C)C)C(C)(C)CCC1", "note": "[β-carotene]", "values": [{"measurement": "incidence rate of pulmonary cancer", "result": "actually rises"}]}
